Measured values: PubChem BioAssay AID1259408 (Genetic Toxicology Data Bank (GENE-TOX), 2018)
Active and inactive are the calls of the source. No rule for the calls is given here.

System: GENE-TOX genotoxicity assays, various organisms and cells
Experiment: GENE-TOX mutagenicity studies
Details: for call: Assay Type: In vivo carcinogenicity studies
[1] = Species/Cell Type: Nonhuman, Assay Type: Sister-chromatid exchange (SCE) in vitro, Assay Code: SC2+, Evaluation Type: Evaluation B (Post-1980)
[2] = Species/Cell Type: Saccharomyces cerevisiae, Assay Type: Mitotic recombination or gene conversion, Assay Code: YEH+, Evaluation Type: Evaluation A (Pre-1980)
[3] = Species/Cell Type: Nonhuman, Assay Code: CCG+, Evaluation Type: Evaluation A (Pre-1980)

In the case of `O=c1[nH]c(=O)n([C@H]2C[C@H](O)[C@@H](CO)O2)cc1F`, the mutagenic call (Species/Cell Type: Aspergillus nidulans, Assay Type: Aneuploidy, chromosome aberrations, Assay Code: ASNT, Evaluation Type: Evaluation A (Pre-1980)) was “no conclusion”, the mutagenic call (Species/Cell Type: Aspergillus nidulans, Assay Type: Mitotic recombination, Assay Code: ASG+, Evaluation Type: Evaluation A (Pre-1980)) was “active; positive” and the mutagenic call (Species/Cell Type: Chinese hamster lung (V79) cells, Assay Type: Forward gene mutation at the HPRT or ouabain locus, Assay Code: V79-, Evaluation Type: Evaluation A (Pre-1980)) was “inactive; negative”. The mutagenic call (Species/Cell Type: Drosophila melanogaster, Assay Type: Aneuploidy, sex chromosome gain, chromosome aberrations, Assay Code: DAG+F, Evaluation Type: Evaluation A (Pre-1980)) was “active; positive”, the mutagenic call (Species/Cell Type: Drosophila melanogaster, Assay Type: Aneuploidy, whole sex chromosome loss, chromosome aberrations, Assay Code: DAC+F, Evaluation Type: Evaluation A (Pre-1980)) was “active; positive” and the mutagenic call (Species/Cell Type: Drosophila melanogaster, Assay Type: Sex-linked recessive lethal gene mutation, Assay Code: SRLT, Evaluation Type: Evaluation A (Pre-1980)) was “no conclusion”. The mutagenic call (Species/Cell Type: Escherichia coli polA (W3119 vs P3478), Assay Type: Rec-assay, DNA effects (bacterial DNA repair), Assay Code: RE1-, Evaluation Type: Evaluation A (Pre-1980)) was “inactive; negative”, the mutagenic call (Species/Cell Type: Glycine max (soybean), Assay Type: Gene mutation, Assay Code: GLM+, Evaluation Type: Evaluation A (Pre-1980)) was “active; positive” and the mutagenic call (Species/Cell Type: Human diploid fibroblasts, Assay Type: Unscheduled DNA synthesis (UDS) in vitro, DNA effects, Assay Code: UDH-, Evaluation Type: Evaluation A (Pre-1980)) was “inactive; negative”. The mutagenic call (Species/Cell Type: Human lymphocytes, Assay Type: Sister-chromatid exchange (SCE) in vitro, Assay Code: SCLT, Evaluation Type: Evaluation B (Post-1980)) was “no conclusion”, the mutagenic call (Species/Cell Type: Human, Assay Type: Sister-chromatid exchange (SCE) in vitro, Assay Code: SC1+, Evaluation Type: Evaluation B (Post-1980)) was “active; positive” and the mutagenic call (Species/Cell Type: Mammalian polychromatic erythrocytes, Assay Type: Micronucleus test, chromosome aberrations, Assay Code: MNT+U, Dose Response: Unconfirmed positive response, Evaluation Type: Evaluation B (Post-1980)) was “active; positive”. The mutagenic call (Species/Cell Type: Mouse (C3H/10T1/2) cells, Assay Type: Cell transformation, Assay Code: CTH+, Evaluation Type: Evaluation A (Pre-1980)) was “active; positive”, the mutagenic call (Species/Cell Type: Neurospora crassa, Assay Type: Aneuploidy, chromosome aberrations, Assay Code: NEN-, Evaluation Type: Evaluation A (Pre-1980)) was “inactive; negative” and the call (Species/Cell Type: Nonhuman, Assay Code: CCGT, Evaluation Type: Evaluation A (Pre-1980)) was “no conclusion”. For the same compound, the mutagenic call [1] was “active; positive”, the mutagenic call [2] was “active; positive” and the mutagenic call (Species/Cell Type: Salmonella typhimurium, Assay Type: Forward and reverse gene mutation, host-mediated assay, Assay Code: HMA-, Evaluation Type: Evaluation A (Pre-1980)) was “inactive; negative”. For the same compound, the mutagenic call (Species/Cell Type: Syrian hamster embryo (SA7/SHE) cells, Assay Type: Cell transformation, viral enhanced, Assay Code: CT7+, Evaluation Type: Evaluation A (Pre-1980)) was “active; positive”, the mutagenic call (Species/Cell Type: Syrian hamster embryo (SHE) cells, Assay Type: Cell transformation, clonal assay, Assay Code: CTC-, Evaluation Type: Evaluation A (Pre-1980)) was “inactive; negative” and the mutagenic call (Species/Cell Type: Vicia faba, Assay Type: Chromosome aberrations, Assay Code: VIC+, Evaluation Type: Evaluation A (Pre-1980)) was “active; positive”.
For `CCCCCCC(=O)O[C@H]1CC[C@H]2[C@@H]3CCC4=CC(=O)CC[C@]4(C)[C@H]3CC[C@]12C`, the mutagenic call (Species/Cell Type: Human, Sex: Male, Assay Type: Sperm morphology, Assay Code: SPH+, Evaluation Type: Evaluation A (Pre-1980)) was “active; positive” and the call [3] was “active; positive”.
In the case of `Cc1cc(Cl)ccc1N`, the call [3] was “active; positive”.
For `BrCC1CO1` (stereo not drawn), the mutagenic call (Species/Cell Type: Neurospora crassa, Assay Type: Reverse gene mutation, Assay Code: NER+, Evaluation Type: Evaluation A (Pre-1980)) was “active; positive”.
In the case of `CC1CCc2c1ccc1c2ccc2ccccc21` (stereo not drawn), the mutagenic call (Species/Cell Type: Salmonella typhimurium (one or more of the five standard strains: TA98, TA100, TA1535, TA1537, and TA1538), Assay Type: Histidine reverse gene mutation, Ames assay, Assay Code: SAL+*, Activation: With metabolic activation, Evaluation Type: Evaluation A (Pre-1980)) was “active; positive”.
For `Cc1c2ccncc2c(C)c2c1[nH]c1ccc(N)cc12`, the mutagenic call (Species/Cell Type: Chinese hamster ovary (CHO) cells, Assay Type: Forward gene mutation at the HPRT locus, Assay Code: CHO+, Evaluation Type: Evaluation B (Post-1980)) was “active; positive”.
In the case of `CN(N=O)C(=O)c1ccc(C(=O)N(C)N=O)cc1`, the mutagenic call (Species/Cell Type: Arabidopsis species, Assay Type: Gene mutation, Assay Code: ARM-, Evaluation Type: Evaluation A (Pre-1980)) was “inactive; negative”, the mutagenic call [2] was “active; positive” and the mutagenic call (Species/Cell Type: Saccharomyces cerevisiae, Assay Type: Reverse gene mutation, Assay Code: YER-, Evaluation Type: Evaluation A (Pre-1980)) was “inactive; negative”.
With `O.O.O.O.O=C([O-])[O-].[Ni+2].[Ni].[Ni]` the mutagenic call [1] was “active; positive”.
For `CN1CCN(CC(=O)N/N=C/c2ccc([N+](=O)[O-])o2)CC1`, the mutagenic call (Species/Cell Type: Escherichia coli WP2, Assay Type: Tryptophan reverse gene mutation, Assay Code: WP2-, Evaluation Type: Evaluation A (Pre-1980)) was “inactive; negative”, the mutagenic call (Species/Cell Type: Mammalian polychromatic erythrocytes, Assay Type: Micronucleus test, chromosome aberrations, Assay Code: MNT+, Evaluation Type: Evaluation A (Pre-1980)) was “active; positive” and the mutagenic call (Species/Cell Type: Rodents, Sex: Male, Assay Type: Dominant lethal test, Assay Code: DLT-, Evaluation Type: Evaluation A (Pre-1980)) was “inactive; negative”. The mutagenic call (Species/Cell Type: Saccharomyces cerevisiae, Assay Type: Mitotic recombination or gene conversion, Assay Code: YEC+, Evaluation Type: Evaluation A (Pre-1980)) was “active; positive”.
With `Cc1ccc(C2CO2)cc1C` (stereo not drawn) the mutagenic call (Species/Cell Type: Escherichia coli WP2, Assay Type: Tryptophan reverse gene mutation, Assay Code: WP2+D, Dose Response: With dose response, Evaluation Type: Evaluation A (Pre-1980)) was “active; positive” and the mutagenic call (Species/Cell Type: Escherichia coli WP2 UVRA, Assay Type: Tryptophan reverse gene mutation, Assay Code: WPU+D, Dose Response: With dose response, Evaluation Type: Evaluation A (Pre-1980)) was “active; positive”.
`O=C(CCl)c1ccccc1` was tested, and the mutagenic call (Species/Cell Type: Drosophila melanogaster, Assay Type: Sex-linked recessive lethal gene mutation, Assay Code: SRL-, Evaluation Type: Evaluation A (Pre-1980)) was “inactive; negative”.
